From patent US11471509B2, “Compositions and methods relating to myomaker-induced muscle cell fusion” (The Board of Regents of the University of Texas System, priority 2013, dated 2022)
“Also recorded” adds a separate entry of the source.

What was measured:
[1] = cited from earlier work
[2] = at 78 weeks, cited from earlier work
C2C12 myoblasts = experiment: C2C12 myoblast fusion in the presence of actin inhibitors; assay type: cell-based; settings: C2C12 cells infected with GFP or Myomaker virus, Cytochalasin D 0.3 μM, lantrunculin B 0.1 μM
[3] = infantile-onset Pompe disease, compared to untreated historical control population

| Compound | overall survival [1, 3] | ventilator-free survival [1, 3] | side effects ([1]; intravenous infusion) | increase in percent predicted forced vital capacity ([2]; P=0.006 vs placebo) | increase in distance walked in six minutes ([2]; average, every other week for 18 months, baseline approximately 325 meters, P=0.03 vs placebo) | myoblast fusion (C2C12 myoblasts) | myoblast fusion (C2C12 myoblasts; listed as latrunculin B) |
| --- | --- | --- | --- | --- | --- | --- | --- |
| alglucosidase alfa [Myozyme] | clearly prolongs | clearly prolongs | fever, flushing, skin rash, increased heart rate and even shock | 1.2% | approximately 25 meters |  |  |
| C=C1[C@@H](C)[C@H]2[C@H](Cc3ccccc3)NC(=O)[C@]23[C@H](OC(C)=O)/C=C/[C@@](C)(O)C(=O)[C@@H](C)C/C=C/[C@H]3[C@@H]1O [cytochalasin D] |  |  |  |  |  | completely blocked fusion; also recorded: abolished |  |
| C/C1=C/C(=O)O[C@@H]2C[C@@H](CC[C@H](C)/C=C\CC1)O[C@@](O)([C@@H]1CSC(=O)N1)C2 [lantrunculin B, latrunculin B] |  |  |  |  |  | completely blocked fusion | abolished |
